# Laboratory results from US9296684B2, “Allyl 2-cyanoacrylate prepolymer, preparation method thereof, and bioadhesive composition comprising the prepolymer” (UNIVERSITY-INDUSTRY COOPERATION GROUP OF KYUNG HEE …, priority 2011, dated 2016).
# Test: Change of viscosity according to time for heating 2-cyanoacrylate prepolymer
# Assay type: physicochemical
# Details: heated at 150° C., FIG. 1
# Description: 10 ml of an allyl 2-cyanoacrylate was added to a glass test tube and then sealed in a vacuum state. The sealed glass test tube was put in an oil bath of 150° C. to heat it for 5, 10, 20, 30, 40, 50, 60, and 70 minutes. The heated cyanoacrylate per each given period of time was cooled at room temperature and then the change in viscosity was observed.
# An ethyl 2-cyanoacrylate was heated; then the heated cyanoacrylate per each given period of time was cooled at room temperature, and then the change in viscosity was observed, by using an identical method as in Example 1 described above, with the exception that ethyl 2-cyanoacrylate was used instead of allyl 2-cyanoacrylate.
# The results of investigating the change in viscosity according to time of heating the 2-cyanoacrylate prepolymer in Example 1 and Comparative Example 1 are shown in FIG. 1. Furthermore, the values of viscosity according to time of heating the 2-cyanoacrylate prepolymer in Example 1 are shown in the following Table 1.
smiles,measurement,value
C=C(C#N)C(=O)OCC [ethyl 2-cyanoacrylate],change in viscosity with greater heating time,no increase in the viscosity
